One assay concerns the target T1, AKR1C3 (Homo sapiens, UniProt P42330).
T1 construct: gift of Professor Trevor Penning (University of Pennsylvania School of Medicine)
T1 sequence (P42330 1-323): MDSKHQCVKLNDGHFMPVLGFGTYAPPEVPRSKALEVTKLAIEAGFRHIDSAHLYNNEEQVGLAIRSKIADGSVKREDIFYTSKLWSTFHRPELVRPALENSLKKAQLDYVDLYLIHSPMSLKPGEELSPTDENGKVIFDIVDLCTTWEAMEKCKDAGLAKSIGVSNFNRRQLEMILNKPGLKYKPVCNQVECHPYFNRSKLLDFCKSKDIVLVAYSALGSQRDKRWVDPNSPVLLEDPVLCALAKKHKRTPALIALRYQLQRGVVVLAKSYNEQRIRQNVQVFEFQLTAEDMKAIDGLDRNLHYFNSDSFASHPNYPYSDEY
Put plainly: Determination of kinetic parameters for AKR1C3 (fluorogenic substrate 5). Type of assay: biochemical. How it is done:
Whether the activity of human enzymes may be imaged by probe 5 was investigated. Type 2 isozyme of 3α-HSD (AKR 1C3) was selected for this study owing to its important physiological role.
Fluorogenic substrate 5 reduction was monitored on a Hitachi F-4500 fluorimeter in Starna quartz cuvettes fluorometrically in 1 mL systems containing 100 mM potassium phosphate pH 6.0 containing excess of NADPH cofactor (250 μM) and various amounts of the substrate (0.1953-50 μM) dissolved in 4% acetonitrile. […] Cuvettes were mixed thoroughly after addition of cofactor, cosolvent, and substrate. Reactions were initiated by the addition of 4 μL of dilute AKR1C3 (115 μg/mL) and were corrected for nonenzymatic rates. All reactions were followed by monitoring the increase in fluorescence of the product alcohol for 5 minutes at λem 510 nm with λex 440 nm (Excitation and emission band pass slits both at 2.5 nm, lamp 900 V) at 37° C. The initial velocities, expressed in units of nanomoles per minute, were calculated according to previously published procedures (Wierzchowski, J.; Dafeldecker, W. P.; Holmquist, B.; Vallee, B. L. Anal. Biochem. 1989, 178, 57-62): initial rate=[nst×(Ft−F0)/(Fst)]/t where Ft and F0 represent the fluorescence at time t and 0, nst is the nanomoles of the product standard, and Fst is the fluorescence resulting from nst of product. Kinetic constants were approximated using the GraFit (Erithacus Software, Surrey, UK) non-linear regression analysis program to fit the untransformed data to a hyperbolic function as originally described (Wilkinson, G. N. Biochem. J. 1961, 80, 324-332), yielding estimated values of kcat, Km, and their associated standard errors.

For a further assay, the system named is AKR1C1-AKR1C4. Put plainly: Substrate tolerance and selectivity across the four human AKR1C isozymes. The conditions noted are these: AKR1C1-AKR1C4, purified enzymes, NADPH. Type of assay: biochemical. From the text:
AKR1C2 and AKR1C3 Selective Probes: Probes (5a-5i) were examined as substrates for the four purified human HSD isozymes (AKR1C1-AKR1C4) under standard assay conditions [catalytic quantities of enzyme, an excess of cofactor (NADPH)]. The initial reaction rates were used to derive standard kinetic parameters (kcat and Km, Materials and Methods).
Substrate tolerance of AKR1Cs: Isozyme Activity with 5a-5i: Activity of the second generation of fluorogenic substrates with the AKR1C isozymes was determined as follows. To a STARNA semi-micro fluorimeter cell (with 4 polished windows) was added 100 μL of 1 M potassium phosphate buffer (pH 6), 840 μL doubly deionized water, and 20 μL of 12.5 mM NADPH. After mixing the aqueous components thoroughly, 20 μL of acetonitrile was added as a cosolvent and mixed well. 20 μL of 2.5 mM second generation fluorogenic ketone in acetonitrile (5a-5i) was then added and mixed. 4 μL of undiluted AKR1C (provided generously by the Penning lab at concentrations of 2.5 mg/mL) were then added to the cuvette for a total of 10 μg purified enzyme in the 1 mL assay volume. Fluorescence arising from the respective alcohol reduction product was then monitored over the course of 5-10 minutes.
Binding constant and catalytic rates (Km and kcat) of the second generation of fluorogenic substrates was determined as follows. To a STARNA semi-micro fluorometer cell (with 4 polished windows) was added 100 μL of 1 M potassium phosphate buffer (pH 6), 840 μL doubly deionized water, and 20 AL of 12.5 mM NADPH. After mixing the aqueous components thoroughly, 20 μL of acetonitrile was added as a cosolvent and mixed well. […] Fluorescence arising from the respective alcohol reduction product was then monitored over the course of 3 minutes (Excitation and emission band pass slits both at 4 nm, lamp 700 V, λexc 410 nm, λem 510). The rate of product formation, expressed in units of nanomoles per minute, were calculated according to previously published procedures (Wierzchowski, J.; Dafeldecker, W. P.; Holmquist, B.; Vallee, B. L. Anal. Biochem. 1989, 178, 57-62): […]

Setting [1] is: 100 mM potassium phosphate pH 6.0, 250 μM NADPH, 37° C.
[2] abbreviates: Type 2 isozyme of 3α-HSD (AKR 1C3).

Turning to `CC(=O)c1cc(=O)oc2c3c4c(cc12)CCCN4CCC3` [compound 5, 8-Acetyl-2,3,5,6-tetrahydro-1H,4H-11-oxa-3a-aza-benzo[de]anthracen-10-one], on AKR1C3 (setting [1]), the Kcat amounted to 0.1374 s⁻¹, the Km was found to be 2.46 µM, the Spec. activity came to 0.226 µmol/min/mg and the Vmax turned out to be 0.1039 nmol/min. On AKR1C3 (setting [2]), the Kcat was found to be 0.137 s⁻¹ and the Michaelis constant (Km) came to 2.5 µM. For the same molecule, the “acceptance as substrate by the four human isozymes” value in the assay on AKR1C1-AKR1C4 was “all four human isozymes catalyzed the reduction”.

Broadly, the Km is the concentration of substrate that gives half-maximal velocity. One may read the Vmax as the top rate of the reaction or transport when substrate is in excess.

(Values after patent US20100048604A1, “Ligands for Aldoketoreductases” (priority 2004, published 2010).)
